Data taken from US11319303B2 (WIGEN BIOMEDICINE TECHNOLOGY (SHANGHAI) CO., LTD., priority 2017, dated 2022).
pIC50: −log10 of the molar value. Where two headings read alike, the source gives them in different places.

Biological target: LC3B (Homo sapiens, UniProt Q9GZQ8)
Assay: Fluorescence Polarization (FP) Assay: displacement of FITC-labeled peptide from GST-LC3B
Assay type: binding
Method: The compounds of the present invention for regulating the autophagy-related protein LC3B were tested by Fluorescence Polarization (FP) Assay.
Fluorescence Polarization (FP) Assay Test

[1] = Fluorescence Polarization assay, GST-LC3B 180 nM, FITC-labeled peptide 18 nM, 25° C., read-out: IC50

In the case of CN(C)CCNC=C1C(=O)CC(c2c(C(F)(F)F)ccc(Cl)c2F)CC1=O (stereo not drawn) [Compound 378, 5-(3-chloro-2-fluoro-6-(trifluoromethyl)phenyl)-2-(((2-(dimethylamino)ethyl)amino)methylene) cyclohexane-1,3-dione], the pIC50 [1] was > 5.52.
For COc1cc(Br)c(C2CC(=O)C(=CNCCN(C)C)C(=O)C2)cc1OC (stereo not drawn) [Compound 379, 5-(2-bromo-4,5-dimethoxyphenyl)-2-(((2-(dimethylamino)ethyl)amino)methylene) cyclohexane-1,3-dione], the pIC50 [1] was > 5.52.
Cc1ccc(NC(=O)C2CC(=O)C(=CNCCN(C)C)C(=O)C2)cc1F (stereo not drawn) [Compound 380, 4-(((2-(dimethylamino)ethyl)amino)methylene)-N-(3-fluoro-4-methylphenyl)-3,5-dioxocyclohexane-1-carboxamide] was tested, and the pIC50 [1] was 4.82 to 5.52.
In the case of CN(C)CCNC=C1C(=O)CC(c2cc(C(F)(F)F)ccc2Cl)CC1=O (stereo not drawn) [Compound 381, 5-(2-chloro-5-(trifluoromethyl)phenyl)-2-(((2-(dimethylamino)ethyl)amino)methylene) cyclohexane-1,3-dione], the pIC50 [1] was > 5.52.
CN(C)CCNC=C1C(=O)CC(c2ccc(Cl)cc2F)CC1=O (stereo not drawn) [Compound 382, 5-(4-chloro-2-fluorophenyl)-2-(((2-(dimethylamino)ethyl)amino)methylene) cyclohexane-1,3-dione] was tested, and the pIC50 [1] was > 5.52.
With CN(C)CCNC=C1C(=O)CC(c2c(F)cccc2F)CC1=O (stereo not drawn) [Compound 383, 5-(2,6-difluorophenyl)-2-(((2-(dimethylamino)ethyl)amino)methylene) cyclohexane-1,3-dione] the pIC50 [1] was > 5.52.
In the case of CN(C)CCNC=C1C(=O)CC(c2cccc(Cl)c2F)CC1=O (stereo not drawn) [Compound 384, 5-(3-chloro-2-fluorophenyl)-2-(((2-(dimethylamino)ethyl)amino)methylene) cyclohexane-1,3-dione], the pIC50 was > 5.52.
With CN(C)CCNC=C1C(=O)CC(c2ccccc2N)CC1=O (stereo not drawn) [Compound 386, 5-(2-aminophenyl)-2-(((2-(dimethylamino)ethyl)amino)methylene) cyclohexane-1,3-dione] the pIC50 [1] was > 5.52.
With O=C1CC(c2cccc(F)c2F)CC(=O)C1=CNCCN1CCN(CCO)CC1 (stereo not drawn) [Compound 387, 5-(2,3-difluorophenyl)-2-(((2-(4-(2-ethoxyl)piperazin-1-yl)ethyl)amino)methylene) cyclohexane-1,3-dione] the pIC50 [1] was > 5.52.
With CN(C)CCNC=C1C(=O)CC(c2cscc2Br)CC1=O (stereo not drawn) [Compound 388, 5-(4-bromothiophen-3-yl)-2-(((2-(dimethylamino)ethyl)amino)methylene) cyclohexane-1,3-dione] the pIC50 [1] was > 5.52.
For CN(C)CCNC=C1C(=O)CC(C(=O)Nc2ccc(-c3ccccc3)cc2)CC1=O (stereo not drawn) [Compound 389], the pIC50 [1] was > 5.52.
With CN(C)CCNC=C1C(=O)CC(c2cc(Cl)ccc2F)CC1=O (stereo not drawn) [Compound 390, 5-(5-chloro-2-fluorophenyl)-2-(((2-(dimethylamino)ethyl)amino)methylene) cyclohexane-1,3-dione] the pIC50 [1] was > 5.52.
Work on O=C1CC(C(O)c2ccccc2)C(=O)/C1=C\NCCN1CCN(CCO)CC1 (stereo not drawn) [Compound 391, 4-(hydroxy(phenyl)methyl)-2-(((2-(4-(2-ethoxyl)piperazin-1-yl)ethyl)amino)methylene) cyclopentane-1,3-dione] yielded a pIC50 [1] of 4.00 to 4.82.
O=C1CC(c2cc3[nH]ccc3cc2Br)CC(=O)C1=CNCCN1CCN(CCO)CC1 (stereo not drawn) [Compound 392, 5-(5-bromo-1H -indol-6-yl)-2-(((2-(4-(2-ethoxyl)piperazin-1-yl)ethyl)amino)methylene) cyclohexane-1,3-dione] was tested, and the pIC50 [1] was > 5.52.
For O=C1CC(c2c[nH]c3cccc(Cl)c23)CC(=O)C1=CNCCN1CCN(CCO)CC1 (stereo not drawn) [Compound 394, 5-(4-chloro-1H-indol-3-yl)-2-(((2-(4-(2-ethoxyl)piperazin-1-yl)ethyl)amino)methylene) cyclohexane-1,3-dione], the pIC50 [1] was > 5.52.
For CCN(CC)CCCC(C)N/C=C1\C(=O)Nc2cc(Cl)ccc2C1=O (stereo not drawn) [Compound 395, 7-chloro-3-(((5-(diethylamino)penta-2-yl)amino)methylene) quinoline-2,4 (1H,3H)-dione], the pIC50 [1] was 4.82 to 5.52.
In the case of CN(C)CCNC=C1C(=O)CC(c2c(Cl)ccc(Cl)c2Cl)CC1=O (stereo not drawn) [Compound 397, 2-(((2-(dimethylamino)ethyl)amino)methylene)-5-(2,3,6-trichlorophenyl) cyclohexane-1,3-dione], the pIC50 [1] was > 5.52.
In the case of CN(C)CCNC=C1C(=O)CC(c2c(Cl)ccc(F)c2F)CC1=O (stereo not drawn) [Compound 398, 5-(6-chloro-2,3-difluorophenyl)-2-(((2-(dimethylamino)ethyl)amino)methylene) cyclohexane-1,3-dione], the pIC50 [1] was > 5.52.
In the case of O=C1CC(c2cccc(Cl)c2Cl)CC(=O)C1=CNCCN1CCN(CCO)CC1 (stereo not drawn) [Compound 400, 5-(2,3-dichlorophenyl)-2-(((2-(4-(2-ethoxyl)piperazin-1-yl)ethyl)amino)methylene) cyclohexane-1,3-dione], the pIC50 [1] was > 5.52.
With CN(C)CCNC=C1C(=O)CC(c2ccc(F)c(F)c2F)CC1=O (stereo not drawn) [Compound 401, 2-(((2-(dimethylamino)ethyl)amino)methylene)-5-(2,3,4-trifluorophenyl) cyclohexane-1,3-dione] the pIC50 [1] was > 5.52.
CN(C)CCNC=C1C(=O)CC(c2c(F)c(F)cc(F)c2F)CC1=O (stereo not drawn) [Compound 402, 2-(((2-(dimethylamino)ethyl)amino)methylene)-5-(2,3,5,6-tetrafluorophenyl) cyclohexane-1,3-dione] was tested, and the pIC50 [1] was > 5.52.
In the case of COc1ccc(C2CC(=O)C(=CNCCN(C)C)C(=O)C2)c(F)c1F (stereo not drawn) [Compound 403, 5-(2,3-difluoro-4-methoxyphenyl)-2-(((2-(dimethylamino)ethyl)amino)methylene) cyclohexane-1,3-dione], the pIC50 was > 5.52.
For CC(F)(F)c1ccccc1C1CC(=O)C(=CNCCN2CCN(CCO)CC2)C(=O)C1 (stereo not drawn) [Compound 404, 5-(2-(1,1-difluoroethyl)phenyl)-2-(((2-(4-(2-ethoxyl)piperazin-1-yl)ethyl)amino)methylene) cyclohexane-1,3-dione], the pIC50 [1] was > 5.52.
With O=C1CC(c2cccc3[nH]c(Br)c(Cl)c23)CC(=O)C1=CNCCN1CCN(CCO)CC1 (stereo not drawn) [Compound 405, 5-(2-bromo-3-chloro-1H-indol-4-yl)-2-(((2-(4-(2-ethoxyl)piperazin-1-yl)ethyl)amino)methylene) cyclohexane-1-1,3-dione] the pIC50 [1] was > 5.52.
In the case of O=C1CC(c2ccccc2-c2c(Cl)cccc2Cl)CC(=O)C1=CNCCN1CCN(CCO)CC1 (stereo not drawn) [Compound 406, 5-(2′,6′-dichloro-[1,1′-biphenyl]-2-yl)-2-(((2-(4-(2-ethoxyl)piperazin-1-yl)ethyl)amino)methylene) cyclohexane-1,3-dione], the pIC50 [1] was > 5.52.
O=C1CC(=Cc2ccccc2)C(=O)C1=CNCCN1CCN(CCO)CC1 [Compound 407, 4-benzylidene-2-(((2-(4-(2-ethoxyl)piperazin-1-yl)ethyl)amino)methylene) cyclopentane-1,3-dione] was tested, and the pIC50 [1] was 4.00 to 4.82.
Work on O=C1CC(c2cccc(Cl)c2Cl)CC(=O)C1=CN1CCCCC1 (stereo not drawn) [Compound 408, 5-(2,3-dichlorophenyl)-2-(piperidine-1-ylmethylene) cyclohexane-1,3-dione] yielded a pIC50 [1] of 4.82 to 5.52.
With CN(C)CCNC=C1C(=O)CC(c2c(Br)ccc(F)c2F)CC1=O (stereo not drawn) [Compound 409] the pIC50 [1] was > 5.52.
In the case of CN(C)CCNC=C1C(=O)CC(c2cccc(F)c2Cl)CC1=O (stereo not drawn) [Compound 410], the pIC50 was > 5.52.
With CN(C)CCNC=C1C(=O)CC(c2c(Cl)ccc(F)c2Cl)CC1=O (stereo not drawn) [Compound 411, 5-(2,6-dichloro-3-fluorophenyl)-2-(((2-(dimethylamino)ethyl)amino)methylene) cyclohexane-1,3-dione] the pIC50 [1] was > 5.52.
CN(C)CCNC=C1C(=O)CC(c2c(F)c(F)c(F)c(F)c2F)CC1=O (stereo not drawn) [Compound 412, 2-(((2-(dimethylamino)ethyl)amino)methylene)-5-(perfluorophenyl) cyclohexane-1,3-dione] was tested, and the pIC50 [1] was > 5.52.
In the case of CN(C)CCNC=C1C(=O)CC(c2c[nH]cc2Br)CC1=O (stereo not drawn) [Compound 413, 5-(4-bromo-1H-pyrrole-3-yl)-2-(((2-(dimethylamino)ethyl)amino)methylene) cyclohexane-1,3-dione], the pIC50 [1] was 4.82 to 5.52.
CN(C)CCNC=C1C(=O)CC(c2c[nH]c(-c3ccccc3)c2)CC1=O (stereo not drawn) [Compound 414, 2-(((2-(dimethylamino)ethyl)amino)methylene)-5-(5-phenyl-1H-pyrrole-3-yl)cyclohexane-1,3-dione] showed a pIC50 [1] of 4.82 to 5.52.
In the case of Cc1ccc(C2CC(=O)C(=CO)C(=O)C2)cc1 (stereo not drawn) [Compound 415, 2-(hydroxymethylene)-5-(4-methylphenyl)cyclo-hexane-1,3-dione], the pIC50 [1] was 4.82 to 5.52.
O=C1CC(c2ccccc2F)CC(=O)C1=CO (stereo not drawn) [Compound 416, 2-(hydroxymethylene)-5-(2-fluorophenyl)cyclo-hexane-1,3-dione] was tested, and the pIC50 [1] was > 5.52.
O=C1CC(c2cccc(F)c2F)CC(=O)C1=CO (stereo not drawn) [Compound 417, 2-(hydroxymethylene)-5-(2,3-difluorophenyl)cyclo-hexane-1,3-dione] was tested, and the pIC50 [1] was > 5.52.
In the case of O=C1CC(c2ccccc2Cl)CC(=O)C1=CO (stereo not drawn) [Compound 418, 2-(hydroxymethylene)-5-(2-chlorophenyl)cyclo-hexane-1,3-dione], the pIC50 [1] was > 5.52.
With O=C1CC(c2cccc(Cl)c2)CC(=O)C1=CO (stereo not drawn) [Compound 419, 2-(hydroxymethylene)-5-(3-chlorophenyl)cyclo-hexane-1,3-dione] the pIC50 [1] was > 5.52.
With O=C1CC(c2c(Cl)cccc2Cl)CC(=O)C1=CO (stereo not drawn) [Compound 420, 2-(hydroxymethylene)-5-(2,6-dichlorophenyl)cyclo-hexane-1,3-dione] the pIC50 [1] was > 5.52.
O=C1CC(c2cccc(Cl)c2Cl)CC(=O)C1=CO (stereo not drawn) [Compound 421, 2-(hydroxymethylene)-5-(2,3-dichlorophenyl)cyclo-hexane-1,3-dione] was tested, and the pIC50 [1] was > 5.52.
For O=C1CC(c2ccccc2Br)CC(=O)C1=CO (stereo not drawn) [Compound 422, 2-(hydroxymethylene)-5-(2-bromophenyl)cyclo-hexane-1,3-dione], the pIC50 [1] was > 5.52.
COc1ccccc1C1CC(=O)C(=CO)C(=O)C1 (stereo not drawn) [Compound 423, 2-(hydroxymethylene)-5-(2-methoxyphenyl)cyclo-hexane-1,3-dione] was tested, and the pIC50 [1] was 4.82 to 5.52.
